According to patent publication US20240109912A1, “TRICYCLIC PYRIMIDINES AS CYCLIN-DEPENDENT KINASE 7 (CDK7) INHIBITORS” (JANSSEN PHARMACEUTICA NV, priority 2020, published 2024):
“And” between values parts separate entries of the source, which are not always exact repeats. Equal values may be shown once. Read-outs that look alike come from different tables or passages of the source.

Columns and labels:
[1] = test system: RNA polymerase II Serine 5 phosphorylation (CDK7) in A549 cells
[2] = test system: RNA polymerase II Serine 5 phosphorylation in A549 cells overexpressing CDK7 mutant (C312S); test: Imaging-based cellular RNA PolII Ser5 phosphorylation assay in A549 cells overexpressing CDK7-mutant (C312S); type: cell-based, human; details: for CDK7_ A549 mutant hCDK7(pIC50): A549 cells overexpressing CDK7 mutant (C312S); for IC50: Homo sapiens, A549, A549 cells overexpressing CDK7 mutant (C312S), read-out: CDK7_ A549 mutant hCDK7(pIC50) (converted)
Method: Data were calculated and analyzed in Phaedra.
From this an IC50 value can be obtained.
In parallel this assay was performed in A549 cells overexpressing CDK7-mutant (C312S) to evaluate the effect of the covalent bond on potency and to screen for potential off-target effects. Mutation of Cysteine to Serine (C312S), a less nucleophilic amino acid, prevents CDK7 inhibitors from covalently binding to CDK7 and from inhibiting CDK7 activity in an irreversible manner. A stably transduced A549 cell pool was generated that overexpresses CDK7 mutant (C312S), but also expresses endogenous CDK7-WT. Covalent binders targeting the cysteine at position 312 will show a shift in potency in A549 cells overexpressing mutant C312S CDK7.

[3] = molecular target: CDK7/cyclinH/MAT1 trimeric complex (Homo sapiens (Human), UniProt P50613); test: In vitro CDK7 assay, potency of irreversible covalent inhibitors (kinact/KI); details: for Ki: CDK7 (20 nM enz.) (KI, μM); for CDK7 (20 nM enz.) (kinact, s^−1) / CDK7 (20 nM enz.) (kinact/ KI, M^−1*s^−1) / Ki: 20 nM enz.; for kinact: read-out: CDK7 (20 nM enz.) (kinact, s^−1), 20 nM enz.
Chain of CDK7/cyclinH/MAT1 trimeric complex (P50613 whole entry): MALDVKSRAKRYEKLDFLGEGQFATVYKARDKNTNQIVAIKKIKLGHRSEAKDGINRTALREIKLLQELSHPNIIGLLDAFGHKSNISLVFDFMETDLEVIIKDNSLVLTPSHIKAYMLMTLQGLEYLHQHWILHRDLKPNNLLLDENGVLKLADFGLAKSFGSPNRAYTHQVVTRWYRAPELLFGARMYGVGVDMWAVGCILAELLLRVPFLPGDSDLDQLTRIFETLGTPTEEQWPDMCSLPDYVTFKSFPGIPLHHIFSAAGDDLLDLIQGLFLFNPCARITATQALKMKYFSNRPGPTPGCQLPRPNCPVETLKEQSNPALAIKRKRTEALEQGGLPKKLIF
Chain of CDK7/cyclinH/MAT1 trimeric complex (P51946 whole entry partner): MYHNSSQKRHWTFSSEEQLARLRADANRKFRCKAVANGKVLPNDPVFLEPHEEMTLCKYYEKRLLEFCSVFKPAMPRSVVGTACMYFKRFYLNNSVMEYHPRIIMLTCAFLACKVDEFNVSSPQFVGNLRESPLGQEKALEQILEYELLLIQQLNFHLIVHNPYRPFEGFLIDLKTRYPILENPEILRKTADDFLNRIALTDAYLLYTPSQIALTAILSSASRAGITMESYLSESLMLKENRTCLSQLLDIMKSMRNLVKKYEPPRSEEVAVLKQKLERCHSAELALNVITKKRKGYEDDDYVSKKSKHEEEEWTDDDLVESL
Chain of CDK7/cyclinH/MAT1 trimeric complex (P51948 whole entry partner): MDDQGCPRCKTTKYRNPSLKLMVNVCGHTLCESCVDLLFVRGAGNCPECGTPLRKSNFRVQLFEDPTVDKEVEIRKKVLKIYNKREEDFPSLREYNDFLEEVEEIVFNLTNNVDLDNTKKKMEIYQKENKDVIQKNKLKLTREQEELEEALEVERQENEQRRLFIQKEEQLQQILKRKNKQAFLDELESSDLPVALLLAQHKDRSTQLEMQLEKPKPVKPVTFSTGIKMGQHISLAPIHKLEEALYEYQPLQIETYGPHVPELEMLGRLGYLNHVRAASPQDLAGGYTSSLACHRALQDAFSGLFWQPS

| Compound | IC50 [1] | IC50 [2] | also measured |
| --- | --- | --- | --- |
| CC#CC(=O)N1CCOC([C@H]2C[C@@H](c3cc(C)c4c(c3)Nc3ncnc(N5CCS(=O)(=O)CC5)c3[C@@H](C)O4)C2)C1 (single isomer, unassigned) [compound 188] | 0.389 µM |  | CDK7_ A549 mutant hCDK7(pIC50) [2]: <5 |
| Cc1cc(C2CN([C@H]3CCN(C(=O)C#CCCN(C)C)C3)C2)cc2c1O[C@H](C)c1c(ncnc1N1CCS(=O)(=O)CC1)N2 (single isomer, unassigned) [compound 176] | < 0.00977 µM | 9.12 µM |  |
| Cc1cc(C2CCN(C3CN(C(=O)C#CC(C)C)C3)CC2)cc2c1O[C@H](C)c1c(ncnc1N1CCS(=O)(=O)CC1)N2 [compound 174] | 0.0589 µM | 7.76 µM |  |
| CC#CC(=O)N1CC(OC2CCN(c3cc(C)c4c(c3)Nc3ncnc(N5CCS(=O)(=O)CC5)c3[C@@H](C)O4)CC2)C1 [compound 143] | 0.912 µM | > 10 µM |  |
| CC#CC(=O)N1CC(N2CC(c3cc(C)c4c(c3)Nc3ncnc(N5CCS(=O)(=O)CC5)c3[C@@H](C)O4)C2)C(C)(C)C1 (mixture of isomers) [compound 184] | 0.186 µM | > 10 µM |  |
| Cc1cc(C2CCN(C3CN(C(=O)C#CCCN4CCOCC4)C3)CC2)cc2c1O[C@H](C)c1c(ncnc1N1CCS(=O)(=O)CC1)N2 [compound 175] | ~0.0263 µM | ~10 µM |  |
| C=CC(=O)N1CC[C@H](N2CC(c3cc(C)c4c(c3)Nc3ncnc(N5CCS(=O)(=O)CC5)c3[C@@H](C)O4)C2)C1 (single isomer, unassigned) [compound 117] |  | > 10 µM | CDK7_ A549 mutant hCDK7(pIC50) [2]: <5; CDK7 (20 nM enz.) (kinact, s^−1) [3]: 8.4e-05 s⁻¹ and 4.63e-05 s⁻¹; CDK7 (20 nM enz.) (kinact/ KI, M^−1*s^−1) [3]: 1546.72 M⁻¹ s⁻¹ and 2895.79 M⁻¹ s⁻¹ and 2153.89 M⁻¹ s⁻¹; Ki [3]: 0.034 µM and 0.029 µM and 0.0215 µM; kinact [3]: 5.26e-05 s⁻¹; kinact/KI ([3]; read-out: CDK7 (20 nM enz.) (kobs/[I], M^−1*s^−1), 20 nM enz.): 800 M⁻¹ s⁻¹ |
| CC#CC(=O)N1CC[C@@H](N2CC(c3cc(C)c4c(c3)Nc3ncnc(N5CCS(=O)(=O)CC5)c3CO4)C2)C1 [compound 127] | 0.513 µM | > 10 µM |  |
| CCC#CC(=O)N1CC[C@@H](N2CC(c3cc(C)c4c(c3)Nc3ncnc(N5CCS(=O)(=O)CC5)c3[C@@H](C)O4)C2)C1 (single isomer, unassigned) [compound 167] | 0.055 µM | > 10 µM |  |
| CC#CC(=O)N1CCOC([C@H]2C[C@H](c3cc(C)c4c(c3)Nc3ncnc(N5CCS(=O)(=O)CC5)c3[C@@H](C)O4)C2)C1 (single isomer, unassigned) [compound 185] | ~0.38 µM | > 10 µM |  |
| Cc1cc(C2CCN(C3(C)CN(C(=O)C#CCCN4CCOCC4)C3)CC2)cc2c1O[C@H](C)c1c(ncnc1N1CCS(=O)(=O)CC1)N2 [compound 180] | < 0.00977 µM | > 10 µM |  |
| Cc1cc(C2CCN(C3CN(C(=O)C#CCCN(C)C)C3)CC2)cc2c1O[C@H](C)c1c(ncnc1N1CCS(=O)(=O)CC1)N2 [compound 178] | < 0.00977 µM | 5.75 µM |  |
| CC#CC(=O)N1CC[C@H](N2CCC(c3cc(C)c4c(c3)Nc3ncnc(N5CCS(=O)(=O)CC5)c3CO4)CC2)C1 (single isomer, unassigned) [compound 134] | 0.0832 µM | > 10 µM |  |
| C=CC(=O)N1CC[C@H](N2CC(c3cc4c(c(C5CC5)c3)O[C@@H](C)c3c(ncnc3N3CCS(=O)(=O)CC3)N4)C2)C1 (single isomer, unassigned) [compound 99] | ~0.794 µM | > 10 µM |  |
| CC#CC(=O)N1CC(N2C3CCC2CC(c2cc(C)c4c(c2)Nc2ncnc(N5CCS(=O)(=O)CC5)c2[C@@H](C)O4)C3)C1 (mixture of isomers) [compound 182] | ~0.0724 µM | 6.03 µM |  |
| Cc1cc(C2CN([C@H]3CCN(C(=O)C#CCN(C)C)C3)C2)cc2c1O[C@H](C)c1c(ncnc1N1CCS(=O)(=O)CC1)N2 (single isomer, unassigned) [compound 170] | < 0.00977 µM | 7.24 µM |  |
| C=CC(=O)N1CCC(N2CC(c3cc(C)c4c(c3)Nc3ncnc(N5CCS(=O)(=O)CC5)c3CO4)C2)C1 (stereo not shown) [compound 112] | 0.204 µM | > 10 µM |  |
| C=CC(=O)N1CC[C@H](N2CCC(c3cc(C)c4c(c3)Nc3ncnc(N5CCS(=O)(=O)CC5)c3CO4)CC2)C1 (single isomer, unassigned) [compound 115] |  | > 10 µM | CDK7_ A549 mutant hCDK7(pIC50) [2]: <5; CDK7 (20 nM enz.) (kinact, s^−1) [3]: 5.98e-05 s⁻¹; CDK7 (20 nM enz.) (kinact/ KI, M^−1*s^−1) [3]: 1377.97 M⁻¹ s⁻¹; Ki [3]: 0.0595 µM and 0.0434 µM; kinact [3]: 7.64e-05 s⁻¹; kinact/KI ([3]; read-out: CDK7 (20 nM enz.) (kinact/ KI, M^−1*s^−1), 20 nM enz.): 1280 M⁻¹ s⁻¹ |
| CCC#CC(=O)N1CC(N2CCC(c3cc(C)c4c(c3)Nc3ncnc(N5CCS(=O)(=O)CC5)c3[C@@H](C)O4)CC2)C1 [compound 163] | ~0.0316 µM | > 10 µM |  |
| C=CC(=O)N1CC[C@@H](N2CC(c3cc4c(c(C5CC5)c3)O[C@@H](C)c3c(ncnc3N3CCS(=O)(=O)CC3)N4)C2)C1 (single isomer, unassigned) [compound 98] | 0.347 µM | > 10 µM |  |
| C=CC(=O)N1CC(N2CC(c3cc(C)c4c(c3)Nc3ncnc(-c5cnn(C)c5)c3[C@H](C)O4)C2)C1 (single isomer, unassigned) [compound 108] | > 10 µM | > 10 µM |  |
| CC#CC(=O)N1CC[C@H](N2CC(c3cc(C)c4c(c3)Nc3ncnc(N5CCS(=O)(=O)CC5)c3CO4)C2)C1 [compound 126] | 0.513 µM | > 10 µM |  |
| C=CC(=O)N1CC[C@@H](N2CC(c3cc(C)c4c(c3)Nc3ncnc(N5CCS(=O)(=O)CC5)c3[C@@H](C)O4)C2)C1 (single isomer, unassigned) [compound 119] |  | > 10 µM | CDK7_ A549 mutant hCDK7(pIC50) [2]: 4.95; CDK7 (20 nM enz.) (kinact, s^−1) [3]: 6.1e-05 s⁻¹ and 4.27e-05 s⁻¹; CDK7 (20 nM enz.) (kinact/ KI, M^−1*s^−1) [3]: 1923.49 M⁻¹ s⁻¹ and 1433.61 M⁻¹ s⁻¹ and 1881.64 M⁻¹ s⁻¹; Ki [3]: 0.0249 µM and 0.0426 µM and 0.0227 µM; kinact [3]: 4.79e-05 s⁻¹ |
| Cc1cc(C2CN([C@@H]3CCN(C(=O)C#CCN(C)C)C3)C2)cc2c1O[C@H](C)c1c(ncnc1N1CCS(=O)(=O)CC1)N2 (single isomer, unassigned) [compound 171] | < 0.00977 µM | 8.51 µM |  |
| CC#CC(=O)N1CC(N2CCC(c3cc4c(c(C)n3)O[C@H](C)c3c(ncnc3N3CCS(=O)(=O)CC3)N4)CC2)C1 (single isomer, unassigned) [compound 139] |  | > 10 µM | CDK7 (20 nM enz.) (kinact, s^−1) [3]: 6.2e-05 s⁻¹; Ki [3]: 0.135 µM and 0.0466 µM; kinact [3]: 5.63e-05 s⁻¹ |

More lines, main results first:

| IC50 [1] | IC50 [2] | Compound | also measured |
| --- | --- | --- | --- |
| 0.162 µM |  | CC#CC(=O)N1CC[C@@H](N2CC(c3cc(C)c4c(c3)Nc3ncnc(N5CCS(=O)(=O)CC5)c3[C@@H](C)O4)C2)C1 [compound 141] | CDK7_ A549 mutant hCDK7(pIC50) [2]: <5 |
|  | > 10 µM | CC#CC(=O)N1CC[C@H](N2CC(c3cc(C)c4c(c3)Nc3ncnc(N5CCS(=O)(=O)CC5)c3[C@H](C)O4)C2)C1 (single isomer, unassigned) [compound 129] | CDK7_ A549 mutant hCDK7(pIC50) [2]: <5 |
| < 0.00977 µM | > 10 µM | CC#CC(=O)N1CCN([C@H]2CC[C@H](c3cc(C)c4c(c3)Nc3ncnc(N5CCS(=O)(=O)CC5)c3[C@@H](C)O4)CC2)CC1 [compound 161] |  |
|  | > 10 µM | CC#CC(=O)N1CC[C@@H](N2CC(c3cc(C)c4c(c3)Nc3ncnc(N5CCS(=O)(=O)CC5)c3[C@@H](C)O4)C2)C1 [compound 130] |  |
| < 0.00245 µM | 4.37 µM | CC#CC(=O)N1CC[C@](C)(N2CCC(c3cc(C)c4c(c3)Nc3ncnc(N5CCS(=O)(=O)CC5)c3[C@@H](C)O4)CC2)C1 (single isomer, unassigned) [compound 146] |  |
| 0.0759 µM |  | CC#CC(=O)N1CC(N2CCC(c3cc(C)c4c(c3)Nc3ncnc(N5CCS(=O)(=O)CC5)c3[C@@H](C)O4)CC2)C1 [compound 157] | CDK7_ A549 mutant hCDK7(pIC50) [2]: 5.12 |
| 0.178 µM | > 10 µM | [2H][C@]1(N2CC(c3cc(C)c4c(c3)Nc3ncnc(N5CCS(=O)(=O)CC5)c3[C@@H](C)O4)C2)CCN(C(=O)C#CC)C1 (single isomer, unassigned) [compound 159] |  |
| 0.209 µM | > 10 µM | CC#CC(=O)N1CCN([C@H]2CC[C@@H](c3cc(C)c4c(c3)Nc3ncnc(N5CCS(=O)(=O)CC5)c3[C@@H](C)O4)CC2)CC1 [compound 162] |  |
| 0.269 µM |  | CC#CC(=O)N1CCOC([C@H]2C[C@H](c3cc(C)c4c(c3)Nc3ncnc(N5CCS(=O)(=O)CC5)c3[C@@H](C)O4)C2)C1 (single isomer, unassigned) [compound 186] | CDK7_ A549 mutant hCDK7(pIC50) [2]: <5 |
| > 10 µM | > 10 µM | CC#CC(=O)N1CCC([C@H]2CC[C@@H](c3cc(C)c4c(c3)Nc3ncnc(N5CCS(=O)(=O)CC5)c3[C@@H](C)O4)CC2)CC1 [compound 173] |  |
| 0.355 µM | > 10 µM | CC#CC(=O)N1CCC([C@H]2CC[C@H](c3cc(C)c4c(c3)Nc3ncnc(N5CCS(=O)(=O)CC5)c3[C@@H](C)O4)CC2)CC1 [compound 172] |  |
|  | > 10 µM | CC#CC(=O)N1CC[C@@H](N2CC(c3cc(C)c4c(c3)Nc3ncnc(N5CCS(=O)(=O)CC5)c3[C@H](C)O4)C2)C1 (single isomer, unassigned) [compound 131] | CDK7_ A549 mutant hCDK7(pIC50) [2]: <5 |
|  | > 10 µM | CC#CC(=O)N1CC[C@H](N2CC(c3cc(C)c4c(c3)Nc3ncnc(N5CCS(=O)(=O)CC5)c3[C@@H](C)O4)C2)C1 [compound 128] | CDK7_ A549 mutant hCDK7(pIC50) [2]: <5 |
